14 compounds from PubChem BioAssay AID246 (DTP/NCI, 2004) can be followed below.

“And” between values parts separate entries of the source, which are not always exact repeats. Equal values may be shown once. Toxic doses and inconclusive results are not listed.

In the assay the test system is BDF1 mice, P1081 chloroleukemia ip, survival T/C. Kind of assay: NCI In Vivo Anticancer Drug Screen. Data for tumor model P1081 Chloroleukemia (intraperitoneal) in B6D2F1 (BDF1) mice. The note with it: endpoint: mean survival time, higher = longer survival. On the procedure:
The antitumor activity of compounds was measured in mice bearing transplantable tumors. Survival or tumor size were measured and the results are expressed as the measurement made in the treated group (T) divided by the measurement made in the vehicle treated control group (C). The tumor model used in this assay is P1081 Chloroleukemia (intraperitoneal) in B6D2F1 (BDF1) mice

[1] abbreviates: dose: 62.5 mg/kg/injection, schedule: Q01DX Z (ip), vehicle: carboxymethylcellulose (CMC).
[2] abbreviates: dose: 125.0 mg/kg/injection, schedule: Q01DX Z (ip), vehicle: carboxymethylcellulose (CMC).
Setting [3] is: dose: 250.0 mg/kg/injection, schedule: Q01DX Z (ip), vehicle: carboxymethylcellulose (CMC).
[4] abbreviates: dose: 500.0 mg/kg/injection, schedule: Q01DX Z (ip), vehicle: carboxymethylcellulose (CMC).
Setting [5] is: dose: 12.5 mg/kg/injection, schedule: Q01DX Z (ip), vehicle: carboxymethylcellulose (CMC).
[6] abbreviates: dose: 25.0 mg/kg/injection, schedule: Q01DX Z (ip), vehicle: carboxymethylcellulose (CMC).
[7] abbreviates: dose: 25.0 mg/kg/injection, schedule: Q01DX010 (ip), vehicle: saline.
Where [8] appears, read: dose: 50.0 mg/kg/injection, schedule: Q01DX Z (ip), vehicle: carboxymethylcellulose (CMC).
[9] abbreviates: dose: 100.0 mg/kg/injection, schedule: Q01DX Z (ip), vehicle: carboxymethylcellulose (CMC).

For `Nc1ncnc2[nH]ncc12`, the T/C is 94 % of control (dose: 0.78 mg/kg/injection, schedule: Q01DX Z (ip), vehicle: carboxymethylcellulose (CMC)); 111 % of control (dose: 1.5 mg/kg/injection, schedule: Q01DX010 (ip), vehicle: saline); 103 % of control (dose: 1.56 mg/kg/injection, schedule: Q01DX Z (ip), vehicle: carboxymethylcellulose (CMC)); 116 % of control and 100 % of control (dose: 3.0 mg/kg/injection, schedule: Q01DX010 (ip), vehicle: saline); 112 % of control (dose: 3.12 mg/kg/injection, schedule: Q01DX Z (ip), vehicle: carboxymethylcellulose (CMC)); 111 % of control and 105 % of control (dose: 6.0 mg/kg/injection, schedule: Q01DX010 (ip), vehicle: saline). For the same compound, the T/C (dose: 6.25 mg/kg/injection, schedule: Q01DX Z (ip), vehicle: carboxymethylcellulose (CMC)) was 94 % of control; the T/C (dose: 12.0 mg/kg/injection, schedule: Q01DX010 (ip), vehicle: saline) was 88 % of control and 105 % of control.

Take `CN1CC[C@]23c4c5ccc(O)c4O[C@H]2C(=O)CC[C@H]3[C@H]1C5`: the T/C by setting is: (dose: 2.0 mg/kg/injection, schedule: Q01DX010 (ip), vehicle: saline) 105 % of control; (dose: 4.0 mg/kg/injection, schedule: Q01DX010 (ip), vehicle: saline) 90 % of control and 100 % of control; (dose: 8.0 mg/kg/injection, schedule: Q01DX010 (ip), vehicle: saline) 90 % of control and 105 % of control; (dose: 16.0 mg/kg/injection, schedule: Q01DX010 (ip), vehicle: saline) 90 % of control and 100 % of control.

For the compound `CCOC(=O)NP(=O)(N1CC1(C)C)N1CC1(C)C` (stereo not given), the T/C was 109 % of control (dose: 8.0 mg/kg/injection, schedule: Q01DX Z (ip), vehicle: carboxymethylcellulose (CMC)); 106 % of control and 99 % of control (dose: 16.0 mg/kg/injection, schedule: Q01DX Z (ip), vehicle: carboxymethylcellulose (CMC)); 87 % of control and 104 % of control under setting [1]; 169 % of control (dose: 63.0 mg/kg/injection, schedule: Q01DX Z (ip), vehicle: carboxymethylcellulose (CMC)).

For `Clc1ccc(C(c2ccccc2Cl)C(Cl)Cl)cc1` (stereo not given), the T/C is, setting by setting: (dose: 0.8 mg/kg/injection, schedule: Q01DX Z (sc), vehicle: steriod suspending solution) 110 % of control; (dose: 3.1 mg/kg/injection, schedule: Q01DX Z (sc), vehicle: steriod suspending solution) 117 % of control; (dose: 6.25 mg/kg/injection, schedule: Q01DX Z (sc), vehicle: steriod suspending solution) 101 % of control; (dose: 12.5 mg/kg/injection, schedule: Q01DX Z (sc), vehicle: steriod suspending solution) 100 % of control; (dose: 25.0 mg/kg/injection, schedule: Q01DX Z (sc), vehicle: steriod suspending solution) 93 % of control and 95 % of control; (dose: 50.0 mg/kg/injection, schedule: Q01DX Z (sc), vehicle: steriod suspending solution) 93 % of control. Besides, the T/C (dose: 100.0 mg/kg/injection, schedule: Q01DX Z (sc), vehicle: steriod suspending solution) is 87 % of control.

For `O=C(Nc1ccc(C2=NCCN2)cc1)c1ccc(C(=O)Nc2ccc(C3=NCCN3)cc2)c(Cl)c1`, the T/C reads like this: (dose: 1.8 mg/kg/injection, schedule: Q01DX Z (ip), vehicle: water) 97 % of control; (dose: 7.5 mg/kg/injection, schedule: Q01DX Z (ip), vehicle: water) 97 % of control; (dose: 60.0 mg/kg/injection, schedule: Q01DX Z (ip), vehicle: water) 86 % of control.

As to `O=CN(O)CC(=O)O`, the T/C reads like this: under setting [1], 99 % of control; under setting [2], 109 % of control; under setting [3], 110 % of control; under setting [4], 101 % of control.

Regarding `C[n+]1c2ccccc2nc2c(N)cc(N)cc21`, the T/C reads like this: (dose: 1.6 mg/kg/injection, schedule: Q01DX Z (ip), vehicle: carboxymethylcellulose (CMC)) 100 % of control; under setting [5], 110 % of control; under setting [6], 101 % of control.

As to `CCCNc1ncnc2[nH]ncc12`, the T/C is 100 % of control (dose: 3.13 mg/kg/injection, schedule: Q01DX010 (ip), vehicle: saline); 90 % of control (dose: 5.0 mg/kg/injection, schedule: Q01DX Z (ip), vehicle: water); 100 % of control (dose: 6.25 mg/kg/injection, schedule: Q01DX010 (ip), vehicle: saline); 93 % of control (dose: 10.0 mg/kg/injection, schedule: Q01DX Z (ip), vehicle: water); 102 % of control (dose: 20.0 mg/kg/injection, schedule: Q01DX Z (ip), vehicle: water); 90 % of control under setting [7].

`CS(=O)(=O)OCC(O)C(O)C(O)C(O)COS(C)(=O)=O` (stereo not given): the T/C reads like this: under setting [7], 110 % of control; (dose: 50.0 mg/kg/injection, schedule: Q01DX010 (ip), vehicle: saline) 110 % of control and 100 % of control; (dose: 100.0 mg/kg/injection, schedule: Q01DX010 (ip), vehicle: saline) 110 % of control and 105 % of control; (dose: 200.0 mg/kg/injection, schedule: Q01DX010 (ip), vehicle: saline) 111 % of control and 120 % of control; (dose: 400.0 mg/kg/injection, schedule: Q01DX010 (ip), vehicle: saline) 111 % of control.

Turning to `OCC1OC(n2cnc3c(Cl)ncnc32)C(O)C1O` (stereo not given), the T/C is 103 % of control (dose: 2.5 mg/kg/injection, schedule: Q01DX Z (ip), vehicle: carboxymethylcellulose (CMC)); 95 % of control (dose: 62.5 mg/kg/injection, schedule: Q01DX010 (ip), vehicle: saline); 95 % of control under setting [1]; 90 % of control (dose: 125.0 mg/kg/injection, schedule: Q01DX010 (ip), vehicle: saline); 91 % of control under setting [2]; 100 % of control (dose: 250.0 mg/kg/injection, schedule: Q01DX010 (ip), vehicle: saline). The T/C was 118 % of control and 95 % of control under setting [3]; 100 % of control (dose: 500.0 mg/kg/injection, schedule: Q01DX010 (ip), vehicle: saline); 98 % of control and 104 % of control under setting [4].

As to `CS(=O)(=O)OCCCl`, the T/C was 98 % of control under setting [5]; 105 % of control and 95 % of control (dose: 18.8 mg/kg/injection, schedule: Q01DX010 (ip), vehicle: saline); 110 % of control under setting [6]; 110 % of control and 100 % of control (dose: 37.5 mg/kg/injection, schedule: Q01DX010 (ip), vehicle: saline); 98 % of control under setting [8]; 105 % of control and 90 % of control (dose: 75.0 mg/kg/injection, schedule: Q01DX010 (ip), vehicle: saline). For the same compound, the T/C runs as follows: under setting [9], 94 % of control; (dose: 2000.0 mg/kg/injection, schedule: Q01DX Z (ip), vehicle: carboxymethylcellulose (CMC)) 103 % of control.

Take `N#Cc1cn(C2OC(CO)C(O)C2O)c2ncnc(N)c12` (stereo not given): the T/C is 97 % of control (dose: 0.03 mg/kg/injection, schedule: Q01DX Z (ip), vehicle: carboxymethylcellulose (CMC)); 103 % of control (dose: 0.06 mg/kg/injection, schedule: Q01DX Z (ip), vehicle: carboxymethylcellulose (CMC)); 103 % of control (dose: 0.12 mg/kg/injection, schedule: Q01DX Z (ip), vehicle: carboxymethylcellulose (CMC)); 88 % of control (dose: 0.25 mg/kg/injection, schedule: Q01DX Z (ip), vehicle: carboxymethylcellulose (CMC)); 94 % of control (dose: 0.5 mg/kg/injection, schedule: Q01DX Z (ip), vehicle: carboxymethylcellulose (CMC)).

Turning to `Cn1cnc([N+](=O)[O-])c1Sc1ncnc2nc[nH]c12`, the T/C by setting is: under setting [6], 165 % of control; under setting [8], 150 % of control; under setting [9], 104 % of control.

With `CCC(=O)O[C@H]1CC[C@H]2[C@@H]3CCC4=CC(=O)CC[C@]4(C)[C@H]3CC[C@]12C`, the T/C is 92 % of control (dose: 31.25 mg/kg/injection, schedule: Q01DX Z (sc), vehicle: steriod suspending solution); 111 % of control (dose: 62.5 mg/kg/injection, schedule: Q01DX Z (sc), vehicle: steriod suspending solution); 107 % of control and 116 % of control (dose: 125.0 mg/kg/injection, schedule: Q01DX Z (sc), vehicle: steriod suspending solution); 107 % of control (dose: 250.0 mg/kg/injection, schedule: Q01DX Z (sc), vehicle: steriod suspending solution); 95 % of control (dose: 500.0 mg/kg/injection, schedule: Q01DX Z (sc), vehicle: steriod suspending solution); 122 % of control (dose: 2000.0 mg/kg/injection, schedule: Q01DX Z (sc), vehicle: steriod suspending solution).
